Assay results reported in US20250120920A1, “DRUG-DELIVERING NERVE WRAP” (UNIVERSITY OF UTAH RESEARCH FOUNDATION, priority 2019, published 2025).

Experiments:
[1] = assay type: physicochemical
Procedure: The inventors discovered that FK506, in particular, is subject to thermal degradation beginning at about 140° C. when incorporated into the preferred polymers within the preferred loading ranges as disclosed herein. While conventional PLLA and PLLA co-polymer hot-melt extrusion protocols call for temperatures exceeding 140° C., limiting the maximum temperature still allows for sufficient manufacturability while minimizing or preventing unwanted thermal degradation of the FK506.

whole chick DRGs = test: DRG neurite extension bioactivity verification assay; assay type: cell-based; settings: 20 ng/ml FK506 positive control; 72 hours culture
Procedure: Fertilized chicken eggs (Merrills Poultry, ID, USA) were incubated at ˜39° C. under 100% relative humidity for 12 days. Dorsal root ganglions (DRG) were dissected from the embryos under a microscope. 24-well plates were coated with laminin (1 μg/ml), then 500 μL from each media sample was placed into 3 wells. DRGs were separated carefully from connective tissue for culturing and a single DRG was placed into each well. For comparison to known FK506 concentrations, DRGs were also grown in negative and positive control concentrations of FK506, 0 ng/ml and 20 ng/ml, respectively. Groups tested: 0 ng/ml FK506 (n=4), 20 ng/ml FK506 control (n=4), Day 4 collection of LD-Wrap (n=6), and Day 4 collection of HD-Wrap (n=8). amples were diluted in DMEM/F12+10% FBS and 1% Pen-Strep. HD-Wrap and LD-Wrap drug release test samples were diluted by a factor of 10 and 2, respectively. Drug release test samples average concentrations after dilution: Day 4 LD-Wrap—18.5 ng/ml FK506 and Day 4 HD-Wrap—23.1 ng/ml FK506. The plate was incubated for 72 hours at 37° C. and 5% CO2 to evaluate the released drug's bioactivity. […] Briefly, the area of the ganglion body (ADRG) and the total area of the DRG with the growing axons (Atot) were measured using ImageJ (ImageJ 1.31v, National Institutes of Health, Bethesda, USA). The average neurite length (lavg) was calculated by: lavg=(Atot/π)^1/2−(ADRG/π)^1/2. […]

- temperature at which thermal degradation begins [1]: about 140 °C
SMILES: C=CC[C@@H]1/C=C(\C)C[C@H](C)C[C@H](OC)[C@H]2O[C@@](O)(C(=O)C(=O)N3CCCC[C@H]3C(=O)O[C@H](/C(C)=C/[C@@H]3CC[C@@H](O)[C@H](OC)C3)[C@H](C)[C@@H](O)CC1=O)[C@H](C)C[C@@H]2OC [FK506]
- Average neurite extension (whole chick DRGs): 720±72.2 μm
